For one data set, the target named is T1, human EAAT3 (Homo sapiens, UniProt P43005).
T1 construct: expressed in transfected cells; host or cells: HEK-293
T1 sequence (P43005 1-524): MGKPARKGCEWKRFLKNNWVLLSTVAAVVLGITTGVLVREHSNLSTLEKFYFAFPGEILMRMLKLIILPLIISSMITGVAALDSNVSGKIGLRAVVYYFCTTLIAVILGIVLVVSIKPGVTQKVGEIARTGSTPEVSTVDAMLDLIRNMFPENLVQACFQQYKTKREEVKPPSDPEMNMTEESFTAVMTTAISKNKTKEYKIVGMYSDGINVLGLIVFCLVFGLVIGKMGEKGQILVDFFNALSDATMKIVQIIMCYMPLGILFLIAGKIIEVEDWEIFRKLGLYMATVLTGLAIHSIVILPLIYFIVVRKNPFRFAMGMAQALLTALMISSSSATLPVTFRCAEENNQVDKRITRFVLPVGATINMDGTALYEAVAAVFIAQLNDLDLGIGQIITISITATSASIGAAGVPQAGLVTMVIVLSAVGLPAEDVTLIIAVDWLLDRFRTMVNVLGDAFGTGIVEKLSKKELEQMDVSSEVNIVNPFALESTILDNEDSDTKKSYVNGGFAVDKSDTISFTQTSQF
Nature of the data set: FLIPR Membrane Potential (FMP) assay. The data set is classed as cell-based. Conditions: HEK-293 cells stably expressing human EAAT3; L-glutamate as agonist at EC80; antagonist applied 15 min before; Kb by Cheng-Prusoff from IC50. The procedure:
The FLIPR Membrane Potential (FMP) assay
HEK-293 cells stably expressing human EAAT3 were seeded at 55 000 cells/well in growth medium (DMEM glutamate free (Invitrogen 11960-044), 1% Pen Strep (10 ml/l GIBCO BRL N^o 15140-023), 10% FCS non dialysed heat inactivated, 5 mg/l puromycin) in poly-D-lysine treated 96-well black microtiter plates with clear-bottom. After 24 h, the growth medium was removed and 100 μl/well of Krebs buffer (140 mM NaCl, 4.7 mM KCl, 2.5 mM CaCl2), 1.2 mM MgCl2, 11 mM HEPES, 10 mM D-glucose, pH=7.4) added. The cells were then loaded by adding 100 μl/well FMP assay dye (FLIPR Membrane Potential assay reagent, Molecular Devices). The 96-well plates were then incubated at 37° C. for 1 h. The depolarization of the cells will cause more dye to enter in the cells, where it will bind to intracellular proteins and lipids and cause an increase in the fluorescence signal. Antagonist potency at human EAAT3 was determined by using L-glutamate as agonist at a concentration which gives 80% of the maximum response. The antagonists were applied 15 min before the application of the agonist L-glutamate. The assays were performed at room temperature and measurements done by using a Fluorometric Imaging Plate Reader (FLIPR, Molecular Devices) and filter #2. Responses were measured as peak increase in fluorescence minus basal (i.e. fluorescence without addition of L-glutamate). Kb was determined using the Cheng-Prusoff equation Kb=IC50/[1+(A/EC50)], where IC50 is the concentration of the antagonist producing 50% inhibition, A is the concentration of the agonist against which the IC50 is being determined (at EC80) and EC50 is the concentration of the agonist producing 50% […].

SMILES strings stand for the structures.

Compound `CC(C)c1ccc(-c2cc(C(=O)NC(C)(C)C)cc(-c3ccnn3C(C)(C)C)n2)cc1` [Example 20, N-tert-Butyl-2-(2-tert-butyl-pyrazol-3-yl)-6-(4-propan-2-yl-phenyl)-pyridine-4-carboxamide] displayed a melting point of 202 °C. Besides, the antagonist equilibrium constant (Kb) at human EAAT3 is 0.1 µM.
For `Cc1ccc(-c2cc(C(=O)NC(C)(C)C)cc(-c3ccnn3C(C)(C)C)n2)cc1` [Example 22, N-tert-Butyl-2-(2-tert-butyl-pyrazol-3-yl)-6-(4-methyl-phenyl)-pyridine-4-carboxamide] the same measures were 182 °C and 0.054 µM.
In the case of `CC(C)n1nccc1-c1cc(C(=O)NC2(C)CCS(=O)(=O)C2)cc(-c2ccc(F)cc2)n1` (racemic) [Example 43, (RS)-2-(4-Fluorophenyl)-N-(3-methyl-1,1-dioxothiolan-3-yl)-6-(2-propan-2-yl-pyrazol-3-yl)-pyridine-4-carboxamide], at human EAAT3, the antagonist equilibrium constant (Kb) came out at 0.53 µM.
`CCn1nccc1-c1cc(C(=O)NC(C)(C)C)cc(-c2ccc(Cl)cc2)n1` [Example 39, N-tert-Butyl-2-(4-chlorophenyl)-6-(2-ethyl-pyrazol-3-yl)-pyridine-4-carboxamide] yielded a melting point of 179 °C. The antagonist equilibrium constant (Kb) on human EAAT3 was 0.51 µM.
`CC(C)n1nccc1-c1cc(C(=O)NC(C)(C)C)cc(-c2ccc(C(F)(F)F)cc2)n1` [Example 6, N-tert-Butyl-2-(2-propan-2-yl-pyrazol-3-yl)-6-[4-(trifluoromethyl)-phenyl]-pyridine-4-carboxamide] came in with a melting point of 173 °C. In addition, the antagonist dissociation constant (Kb) at human EAAT3 came to 0.45 µM.
The matching figures for `CC(C)(C)NC(=O)c1cc(-c2ccc(F)cc2)nc(-c2ccnn2CC2CC2)c1` [Example 12, N-tert-Butyl-2-[2-(cyclopropylmethyl)-pyrazol-3-yl]-6-(4-fluorophenyl)-pyridine-4-carboxamide]: 203 °C and 0.31 µM.
Consider `CC(C)n1nccc1-c1cc(C(=O)NC(C)(C)C)cc(-c2ccc(C#N)cc2)n1` [Example 30, N-tert-Butyl-2-(4-cyano-phenyl)-6-(2-propan-2-yl-pyrazol-3-yl)-pyridine-4-carboxamide], for which, on human EAAT3, the Kb amounted to 1.87 µM.
Regarding `Cn1nccc1-c1cc(C(=O)NC(C)(C)C)cc(-c2ccc(Cl)cc2)n1` [Example 1, N-tert-Butyl-2-(4-chlorophenyl)-6-(2-methyl-pyrazol-3-yl)-pyridine-4-carboxamide], the melting point came out at 184 °C. Moreover, the Kb on human EAAT3 is 0.37 µM.
Regarding `CC(C)(C)NC(=O)c1cc(-c2ccc(Cl)cc2)nc(-c2ccnn2CC2CC2)c1` [Example 40, N-tert-Butyl-2-(4-chlorophenyl)-6-[2-(cyclopropyl-methyl)-pyrazol-3-yl]-pyridine-4-carboxamide], the melting point turned out to be 218 °C. Besides, the antagonist equilibrium constant (Kb) at human EAAT3 turned out to be 0.49 µM.
Take `Cc1cc(-c2cc(C(=O)NC(C)(C)C)cc(-c3ccnn3C(C)C)n2)ccc1F` [Example 37, N-tert-Butyl-2-(4-fluoro-3-methyl-phenyl)-6-(2-propan-2-yl-pyrazol-3-yl)-pyridine-4-carboxamide]: the melting point stood at 160 °C. At human EAAT3, this compound registered a Kb of 0.4 µM.
Compound `CC(C)(C)n1nccc1-c1cc(C(=O)NC(C)(C)C(F)(F)F)cc(-c2ccc(Cl)cc2)n1` [Example 54, 2-(2-tert-Butyl-pyrazol-3-yl)-6-(4-chlorophenyl)-N-(1,1,1-trifluoro-2-methyl-propan-2-yl)-pyridine-4-carboxamide] gave a melting point of 206 °C. The compound further came in with an antagonist equilibrium constant (Kb) on human EAAT3 of 0.44 µM.
As to `COc1ccc(-c2cc(C(=O)NC(C)(C)C)cc(-c3ccnn3C(C)(C)C)n2)cc1` [Example 23, N-tert-Butyl-2-(2-tert-butyl-pyrazol-3-yl)-6-(4-methoxy-phenyl)-pyridine-4-carboxamide], the antagonist dissociation constant (Kb) at human EAAT3 was 0.085 µM.
In turn, `CC(C)n1nccc1-c1cc(C(=O)NC(C)(C)C#N)cc(-c2ccc(F)cc2)n1` [Example 45, N-(2-Cyanopropan-2-yl)-2-(4-fluorophenyl)-6-(2-propan-2-yl-pyrazol-3-yl)-pyridine-4-carboxamide] had a Kb at human EAAT3 of 0.45 µM.
For the compound `Cc1ccc(-c2cc(C(=O)NC(C)(C)C)cc(-c3ccnn3C(C)C)n2)cc1` [Example 34, N-tert-Butyl-2-(4-methyl-phenyl)-6-(2-propan-2-yl-pyrazol-3-yl)-pyridine-4-carboxamide], the Kb on human EAAT3 was 0.26 µM.
Regarding `CC(C)n1nccc1-c1cc(C(=O)NC(C)(C)C)cc(-c2ccc(C3CC3)cc2)n1` [Example 29, N-tert-Butyl-2-(4-cyclopropyl-phenyl)-6-(2-propan-2-yl-pyrazol-3-yl)-pyridine-4-carboxamide], the antagonist dissociation constant (Kb) at human EAAT3 turned out to be 0.56 µM.
At human EAAT3, `CC(C)n1nccc1-c1cc(C(=O)NC(C)(C)C)cc(-c2ccc(F)c(F)c2)n1` [Example 31, N-tert-Butyl-2-(3,4-difluoro-phenyl)-6-(2-propan-2-yl-pyrazol-3-yl)-pyridine-4-carboxamide] displayed a Kb of 0.24 µM.
At human EAAT3, `Cc1cc(-c2cc(C(=O)NC(C)(C)C)cc(-c3ccnn3C(C)(C)C)n2)ccc1F` [Example 25, N-tert-Butyl-2-(2-tert-butyl-pyrazol-3-yl)-6-(4-fluoro-3-methyl-phenyl)-pyridine-4-carboxamide] came in with a Kb of 0.074 µM.
The compound `CC(C)(C)NC(=O)c1cc(-c2ccc(C3CC3)cc2)nc(-c2ccnn2C(C)(C)C)c1` [Example 17, N-tert-Butyl-2-(2-tert-butyl-pyrazol-3-yl)-6-(4-cyclopropyl-phenyl)-pyridine-4-carboxamide] returned a Kb on human EAAT3 of 0.11 µM.
In the case of `CC(C)(C)NC(=O)c1cc(-c2ccc(C#N)cc2)nc(-c2ccnn2C(C)(C)C)c1` [Example 18, N-tert-Butyl-2-(2-tert-butyl-pyrazol-3-yl)-6-(4-cyano-phenyl)-pyridine-4-carboxamide], at human EAAT3, the Kb was determined as 0.089 µM.
Still for that read-out and setting: next, `Cc1ccc(-c2cc(C(=O)NC(C)(C)C)cc(-c3ccnn3C(C)C)n2)cc1F` [Example 38, N-tert-Butyl-2-(3-fluoro-4-methyl-phenyl)-6-(2-propan-2-yl-pyrazol-3-yl)-pyridine-4-carboxamide]: 0.4 µM.
On the same count and under the same terms, the result for `CC(C)(C)NC(=O)c1cc(-c2ccc(F)c(Cl)c2)nc(-c2ccnn2C(C)(C)C)c1` [Example 21, N-tert-Butyl-2-(2-tert-butyl-pyrazol-3-yl)-6-(3-chloro-4-fluoro-phenyl)-pyridine-4-carboxamide] reads 0.11 µM; that for `CC(C)n1nccc1-c1cc(C(=O)NC(C)(C)C)cc(-c2ccc(F)c(Cl)c2)n1` [Example 33, N-tert-Butyl-2-(3-chloro-4-fluorophenyl)-6-(2-propan-2-yl-pyrazol-3-yl)-pyridine-4-carboxamide], 0.53 µM; that for `CC(C)c1ccc(-c2cc(C(=O)NC(C)(C)C)cc(-c3ccnn3C(C)C)n2)cc1` [Example 32, N-tert-Butyl-2-(4-propan-2-yl-phenyl)-6-(2-propan-2-yl-pyrazol-3-yl)-pyridine-4-carboxamide], 1.18 µM.
At human EAAT3, `COc1ccc(-c2cc(C(=O)NC(C)(C)C)cc(-c3ccnn3C(C)C)n2)cc1` [Example 35, N-tert-Butyl-2-(4-methoxy-phenyl)-6-(2-propan-2-yl-pyrazol-3-yl)-pyridine-4-carboxamide] displayed a Kb of 0.36 µM.
On human EAAT3, `CC(C)n1nccc1-c1cc(C(=O)NC(C)(C)C)cc(-c2ccc(Cl)c(F)c2)n1` [Example 36, N-tert-Butyl-2-(4-chloro-3-fluorophenyl)-6-(2-propan-2-yl-pyrazol-3-yl)-pyridine-4-carboxamide] returned an antagonist equilibrium constant (Kb) of 0.23 µM.

In general, melting point refers to the temperature of the solid-liquid transition. One may read the Kb as the affinity of an antagonist, worked out from how it opposes an agonist. Low values mean higher antagonist affinity, high ones lower antagonist affinity.

These data come from patent US10457663B2, “Pyrazol-pyridine derivatives” (Hoffmann-La Roche Inc., priority 2016, dated 2019).
